SMILES strings stand for the structures. In brackets after ≈: the same amount, converted by molar mass. Entries after “also recorded” stand apart in the source; their conditions may differ. Where only a bound is given, the exact number is not on record here.

For one data set, the target named is T1, HsKRS (Homo sapiens, UniProt Q15046).
T1 construct: made in house
The data set can be described thus: HsKRS in vitro enzyme assay. It counts as biochemical. The conditions noted are these: mean (95% confidence interval).

For another data set, the system named is HepG2. Briefly: HepG2 in vitro cytotoxicity. The data set is classed as cell-based, human. The conditions noted are these: for EC50: Homo sapiens, HepG2, cytotoxicity; for Cellular selectivity: ratio of mean HepG2/C. parvum EC50.
In another data set the test system is wild type C. parvum. The data set can be described thus: NOD SCID Gamma mouse efficacy model. The data set is classed as in vivo. The conditions noted are these: for parasite shedding once treatment finished (day 14 PI) / recrudescence (day 21 PI): 10 mg/kg BID oral 7 days; for log reduction in parasite shedding / parasite reduction: 10 mg/kg twice a day oral 7 days; for minimum efficacious dose (MED): BID oral 7 days, reduces parasite burden and prevents recrudescence. Here is the method:
An immunocompromised mouse model of cryptosporidiosis (Fig. 1C) was selected to examine the effect of each of the fourteen tool compounds on parasite reduction in vivo. […] Treatment started on day 7 post infection (PI) and concluded on day 13 PI. Infection was determined by measuring the number of parasites shed in the fecal material by quantitative PCR (oocysts/g). Efficacy was determined by calculating the log reduction in the number of oocysts shed by treated animals after completion of compound dosing (day 14) relative to the initial parasite burden in the same group of animals before treatment began (day 7 PI). Hypothesized compound absorption by BCS class is illustrated in Fig. S3. […] No Class I or Class IV compound achieved a log reduction above 2.0 (99% parasite reduction).
Efficacy of tool compounds in the NOD SCID Gamma mouse model was assessed as previously described.([14]) Male mice aged 3-5 weeks old were used, 4 mice per group (NOD.Cg-Prkdc^scid Il2rgtm1Wjl/SzJ; purchased from Jackson Labs). Mice were infected via gavage (100,000 wild type Iowa strain C. parvum oocysts from Bunchgrass Farms). Compounds were prepared fresh daily in HPMC with DMSO (0.5% hydroxypropylmethylcellulose, 0.4% Tween 80 and 0.5% Benzyl alcohol (v/v) plus 5% DMSO) and were administered by oral gavage at the concentration indicated starting 7 days post infection. Paromomycin served as the positive control (administered at 2000 mg/kg). Fecal samples were collected on days indicated. Oocyst shedding in feces was measured using a previously validated qPCR assay.([28])

The subject of data set [1] is transgenic C. parvum that express NanoLuciferase. Briefly: IFN-Gamma KO mouse acute efficacy model. It counts as in vivo. The conditions noted are these: DDD489, DDD508 50 mg/kg BID; DDD706 20 mg/kg QD; oral 7 days from day 6 PI. As for the experimental part:
First, compounds were tested in the acute cryptosporidiosis mouse model, IFN-Gamma KO.([16]) In this model, infection peaks at approximately 10-12 days PI, and resolves within a month. Mice were infected with a strain of transgenic C. parvum that expresses NanoLuciferase (NLuc).([12]) Mice were treated orally for 7 days starting on day 6 PI (Fig. 4A) and a NanoLuciferase assay was used to determine parasite shedding in feces (RLUs/g). Control mice received either vehicle (Fig. 4B, white) or positive control, DDD706 (Fig. 4B, black; NLuc parasites are genetically engineered to be resistant to paromomycin, so DDD706 serves as the positive control) at 20 mg/kg QD; DDD489 and DDD508 were tested at 50 mg/kg BID.
Male IFN-Gamma knockout mice (B6.129S7-Ifng^tmlTS/J, JAX 002287; purchased from Jackson Labs and bred at the University of Dundee) aged 30 weeks old were used, (n = 5 mice per experimental group). Mice were infected by oral gavage (100 oocysts of Δtk::mNeon-Neo^R as described previously([12])). Compounds were prepared in HMPC without DMSO and administered by oral gavage at 50 mg/kg starting day 6 PI. Early lead compound DDD706 served as the positive control (administered at 20 mg/kg QD). Fecal samples were pooled from all mice in the cage on days indicated. Oocyst shedding in feces was determined by NanoLuciferase assay (20 mg of fecal material was homogenized in 1 ml of lysis buffer and assayed for NLuc activity as previously described).([12])

The nature of another data set: Calf tolerability study. The conditions noted are these: 15 mg/kg twice daily oral 7 days. It counts as in vivo. Here is the method: Calf efficacy and tolerability study
Calf tolerability study (Moredun Scientific)
A tolerability study was conducted on uninfected calves prior to efficacy studies to confirm palatability and tolerance. Starting at day 2 post birth (“Day 1”), DDD489 or DDD508 were administered to four male calves per treatment group. The test compound was dosed at 15 mg/kg (maximum volume of 20 ml per occasion; prepared in vehicle: 0.5% HPMC, 0.4% Tween 80, 0.5% Benzyl alcohol in sterile water) for a total of 7 days. Administration was by oral gavage twice daily immediately prior to milk feeds, and at least 8 hours apart (± 30 minutes). Body weight was measured on day 0 and day 7, and clinical observations were recorded twice a day during dosing. Blood samples were collected from all animals prior to the morning treatment on Day 1, then 5 (± 2) minutes, 15 (± 2) minutes, 30 (± 5) minutes, 1, 2, 4, 8 and 24 hours (± 10 minutes) post first daily dose. This sample schedule was repeated on Day 7 for the same animals. Blood samples were processed to plasma. […]

A short description of the next data set: FaSSIF solubility. It counts as physicochemical. The conditions noted are these: Fasted State Simulated Intestinal Fluid.
Data set [2] can be described thus: Liver microsomal intrinsic clearance, bovine. The data set is classed as in vitro ADME. The conditions noted are these: bovine liver microsomes.
Data set [3] in a line: Hepatocyte intrinsic clearance, mouse. It counts as in vitro ADME. The conditions noted are these: mouse hepatocytes.
Data set [4] in a line: Plasma protein binding, bovine. It counts as in vitro ADME. The conditions noted are these: calf plasma, PPB assay, read-out: fraction unbound (fu).
The nature of data set [5]: Plasma protein binding, human. The data set is classed as in vitro ADME. The conditions noted are these: read-out: PPB (h) (converted).
The target of a further data set is CYP450 2C9 (Homo sapiens, UniProt P11712). The data set can be described thus: CYP450 inhibition 2C9. The data set is classed as in vitro ADME. Here is the method:
CYP450 inhibition (Dundee)
As previously described.(31)
DDD489 and DDD508 were evaluated for their ability to induce reverse mutations both in the presence and absence of S9 mix at the histidine locus in the genome of four strains of Salmonella typhimurium (TA98, TA100, TA1535, and TA97a) and at the tryptophan locus in the genome of Escherichia coli WP2 uvrA in a mini-Ames study conducted at WuXi App Tec […]
hERG inhibition (WuXi App Tec)
DDD489 and DDD508 were evaluated for their effects on cloned hERG potassium channels stably expressed in Chinese Hamster Ovary (CHO) cells using manual patch-clamp technique in a hERG inhibition assay conducted at WuXi App Tec (Suzhou).
Mitochondrial toxicity (Cyprotex)
DDD489 and DDD508 were evaluated for their effects on mitochondrial function in a functional mitochondrial toxicity assay using Seahorse XFe96 flux analyser conducted at […]
44 screen safety panel (Eurofins)
DDD489 was evaluated for off-target effects in a SafetyScreen44 panel at Eurofins Cerep.
All regulated procedures, at the University of Dundee, on living animals were carried out under the authority of a project license issued by the Home Office under the Animals (Scientific Procedures) Act 1986, as amended in 2012 (and in compliance with EU Directive EU/2010/63). […]

Chain of CYP450 2C9 (P11712 whole entry): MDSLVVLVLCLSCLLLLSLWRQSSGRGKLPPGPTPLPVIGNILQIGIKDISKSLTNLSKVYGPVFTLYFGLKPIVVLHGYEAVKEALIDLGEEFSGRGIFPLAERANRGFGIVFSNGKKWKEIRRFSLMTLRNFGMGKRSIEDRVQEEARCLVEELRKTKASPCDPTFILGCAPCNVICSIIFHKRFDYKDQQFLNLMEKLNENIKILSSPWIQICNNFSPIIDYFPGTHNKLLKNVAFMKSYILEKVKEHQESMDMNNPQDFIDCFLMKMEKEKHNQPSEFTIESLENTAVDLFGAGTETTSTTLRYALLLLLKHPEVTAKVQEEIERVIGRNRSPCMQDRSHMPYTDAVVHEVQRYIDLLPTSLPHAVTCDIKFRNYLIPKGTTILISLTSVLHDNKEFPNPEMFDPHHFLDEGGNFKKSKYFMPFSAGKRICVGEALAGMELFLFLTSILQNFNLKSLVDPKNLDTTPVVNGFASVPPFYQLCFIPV
T1 sequence (Q15046 whole entry): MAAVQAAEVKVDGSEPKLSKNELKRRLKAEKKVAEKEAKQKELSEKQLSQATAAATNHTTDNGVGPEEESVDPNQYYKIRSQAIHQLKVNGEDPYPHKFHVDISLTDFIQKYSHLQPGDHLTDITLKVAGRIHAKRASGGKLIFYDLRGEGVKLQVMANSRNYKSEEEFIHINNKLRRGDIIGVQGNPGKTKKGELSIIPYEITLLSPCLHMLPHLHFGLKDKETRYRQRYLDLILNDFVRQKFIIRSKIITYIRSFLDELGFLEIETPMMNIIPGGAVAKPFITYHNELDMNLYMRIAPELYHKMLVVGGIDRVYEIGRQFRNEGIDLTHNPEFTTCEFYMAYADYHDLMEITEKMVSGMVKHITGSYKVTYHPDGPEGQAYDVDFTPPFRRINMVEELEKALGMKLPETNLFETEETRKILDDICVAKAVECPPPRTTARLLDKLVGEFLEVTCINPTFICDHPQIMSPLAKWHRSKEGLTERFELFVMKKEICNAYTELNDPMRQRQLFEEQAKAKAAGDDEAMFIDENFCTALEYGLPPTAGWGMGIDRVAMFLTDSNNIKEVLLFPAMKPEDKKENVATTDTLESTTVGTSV

The molecule `Nc1nc2c(c(C(F)(F)F)n1)C(=O)N(CC1CCCC(C(F)(F)F)C1)C2` (centres unmarked) [DDD489] had a 50% inhibitory concentration (IC50) against HsKRS of 22 µM. In addition, in the data set on HepG2, the response was half-maximal at 18 µM (EC50) and the Cellular selectivity is on record as 450 fold. Also, in the data set with wild type C. parvum, the “parasite shedding once treatment finished (day 14 PI)” value is listed as “reduces parasite shedding to the level of detection”, the “recrudescence (day 21 PI)” value is “unable to prevent recrudescence; also recorded: does not prevent recrudescence”, the “log reduction in parasite shedding” value was more than 2.8 log and the parasite reduction was more than 99.8%. Besides, in the data set with wild type C. parvum, the “minimum efficacious dose (MED)” value turned out to be 30 mg/kg. In addition, the “recrudescence at day 21 PI” value in the data set on wild type C. parvum (50 mg/kg BID oral 7 days) was “prevents”. For the same molecule, in data set [1], the “parasite shedding during treatment period” value is “reduced parasite shedding below the LOQ” and the recrudescence entry is on record as “able to prevent parasite recrudescence”. In addition, the “tolerability in uninfected calves” value in “Calf tolerability study” was “well tolerated”. This molecule also gave a solubility in the data set “FaSSIF solubility” of 48 µM (≈ 18.4 µg/mL). Further, the “Mics CLi (b)” value in data set [2] is 25 mL/min/g. The “Heps CLi (m)” value in data set [3] is 10 mL/min/g. In data set [4], the fraction unbound amounted to 0.26. Besides, the fraction unbound in data set [5] is 0.23. Also, the IC50 on CYP450 2C9 came out at 32 µM.
With `O=C(NCC1(O)CCCCC1)c1cc(=O)c2cc(O)ccc2o1` [DDD508], the IC50 at HsKRS turned out to be 10 µM. For the same molecule, in the data set with HepG2, it took 18 µM to reach a half-maximal effect (EC50) and the Cellular selectivity turned out to be 140 fold. Further, in the data set on wild type C. parvum, the “parasite shedding once treatment finished (day 14 PI)” value was “parasite shedding to the level of detection”, the “recrudescence (day 21 PI)” value is reported as “unable to prevent recrudescence”, the “log reduction in parasite shedding” value is recorded as more than 2.8 log and the parasite reduction was more than 99.8%. The “minimum efficacious dose (MED)” value in the data set with wild type C. parvum was 30 mg/kg. Moreover, in [1], the “parasite shedding during treatment period” value was “reduced parasite shedding below the limit of quantitation (LOQ)” and the recrudescence entry is “unable to prevent recrudescence”. For the same molecule, the “tolerability in uninfected calves” value in “Calf tolerability study” was “well tolerated”. For the same molecule, the concentration in solution in the data set “FaSSIF solubility” (solubility) was 325 µM (≈ 103 µg/mL). Further, the “Mics CLi (b)” value in [2] is less than 0.5 mL/min/g. Moreover, the “Heps CLi (m)” value in data set [3] is recorded as 3.7 mL/min/g. Besides, the fraction unbound in data set [4] worked out at 0.53. Moreover, the fraction unbound in data set [5] is 0.42. This molecule also returned an IC50 at CYP450 2C9 of more than 100 µM.

These data come from publication PMC7617456, “Cryptosporidium lysyl-tRNA synthetase inhibitors define the interplay between solubility and permeability required to achieve efficacy” (Science translational medicine, 2024).
